Laboratory results taken from patent US20250235432A1, “METHODS OF TREATING CANCERS” (Foghorn Therapeutics Inc., priority 2018, published 2025).

Tests used:
Assay type in all cases: cell-based
[1] = system: parental MP41 and PKCi-resistant MP41 uveal melanoma cells; experiment: 7-day growth inhibition assay, parental and PKC inhibitor-resistant cells
Method: Procedure: Uveal melanoma cell lines (92-1, MP41, MP38, MP46), prostate cancer cell lines (LNCAP), lung cancer cell lines (NClH1299), and immortalized embryonic kidney lines (HEK293T) were plated into 96 well plates with growth media (see Table 1). […] Cells were incubated at 37° C. for 3 days. After 3 days of treatment, the media was removed from the cells, and 30 microliters of TrypLE (Gibco) was added to cells for 10 minutes. Cells were detached from the plates and resuspended with the addition of 170 microliters of growth media. Cells from two DMSO-treated control wells were counted, and the initial number of cells plated at the start of the experiment, were re-plated into fresh-compound containing plates for an additional four days at 37° C. At day 7, cells were harvested as described above.
On day 3 and day 7, relative cell growth was measured by the addition of Cell-titer glo (Promega), and luminescence was measured on an Envision plate reader (Perkin Elmer).
Procedure: MP41 uveal melanoma cells were made resistant to the PKC inhibitor (LXS196; MedChemExpress), by long-term culture in growth media (see Table 1) containing increasing concentrations of the compound, up to 1 micromolar. After 3 months, sensitivity of the parental MP41 cells and the PKC inhibitor (PKCi)-resistant cells to the PKC inhibitor (LXS196) or the BRG1/BRM ATPase inhibitor (compound 18) was tested in a 7-day growth inhibition assay as described above in Example 2.

[2] = system: uveal melanoma cell lines 92-1 or MP41; experiment: 3-day growth inhibition of uveal melanoma cell lines, comparison to clinical PKC and MEK inhibitors; conditions: for onset of growth inhibition compared to the clinical PKC and MEK inhibitors: 92-1 or MP41; for growth inhibition of uveal melanoma cells compared to the clinical PKC and MEK inhibitors (LXS196, Selumetinib): 92-1 or MP41, 3 days, 0 to 10 micromolar
Method: Procedure: Uveal melanoma cell lines, 92-1 or MP41, were plated in 96 well plates in the presence of growth media (see Table 1). […] Cells were incubated at 37° C. for 3 days. After 3 days of treatment, cell growth was measured with Cell-titer glow (Promega), and luminescence was read on an Envision plate reader (Perkin Elmer).
Procedure: Uveal melanoma cell lines, 92-1 or MP41, were plated in 96 well plates in the presence of growth media (see Table 1). BAF ATPase inhibitor (compound 18), PKC inhibitor (LXS196; MedChemExpress), and MEK inhibitor (Selumetinib; Selleck Chemicals) were dissolved in DMSO and added to the cells in a concentration gradient from 0 to 10 micromolar at the time of plating. Cells were incubated at 37° C. for 3 days. After three days of treatment, cell growth was measured with Cell-titer glow (Promega), and luminescence was read on an Envision plate reader (Perkin Elmer).

[3] = system: uveal melanoma cell lines (92-1, MP41, MP38, MP46); experiment: 3-day growth inhibition of uveal melanoma and non-small cell lung cancer cell lines; conditions: 3 days, 0 to 10 micromolar, FIG. 5
Method: Procedure: Uveal melanoma cell lines (92-1, MP41, MP38, MP46) and non-small cell lung cancer cells (NCl-H1299) were plated into 96 well plates with growth media (see Table 1). BRG1/BRM ATPase inhibitor, compound 18, was dissolved in DMSO and added to the cells in a concentration gradient from 0 to 10 micromolar at the time of plating. Cells were incubated at 37° C. for 3 days. After three days of treatment, cell growth was measured with Cell-titer glow (Promega), and luminescence was read on an Envision plate reader (Perkin Elmer).

Row | SMILES | tolerance of PKCi-resistant cells relative to the parental MP41 cell line ([1]; 7-day assay, FIG. 7A) | onset of growth inhibition compared to the clinical PKC and MEK inhibitors [2] | growth inhibition of uveal melanoma cells compared to the clinical PKC and MEK inhibitors (LXS196, Selumetinib) [2] | growth inhibition in the uveal melanoma cell lines [3] | sensitivity of PKCi-resistant cells relative to parental MP41 cells ([1]; 7-day assay, FIG. 7B) | growth inhibition of both the PKCi-resistant and parental cell lines ([1]; MP41, 7-day assay, FIG. 7B)
1 | CC1(N)CCN(c2cccnc2NC(=O)c2nc(-c3ncccc3C(F)(F)F)cnc2N)CC1 [LXS196, reference compound] | could tolerate growth at higher concentrations | – | – | – | – | –
2 | CSCC[C@H](NC(=O)c1ccc(N)cc1)C(=O)Nc1nc(-c2cccc(-c3ccncc3)c2)cs1 [compound 17, 4-amino-N-[(1S)-3-methylsulfanyl-1-[[4-[3-(4-pyridyl)phenyl]thiazol-2-yl]carbamoyl]propyl]benzamide] | – | faster onset of inhibition | comparable growth inhibition | – | – | –
3 | CSCC[C@H](NC(=O)c1ccn(S(C)(=O)=O)c1)C(=O)Nc1nc(-c2cccc(-c3ccncc3)c2)cs1 [compound 18, (S)-1-(methylsulfonyl)-N-(4-(methylthio)-1-oxo-1-((4-(3-(pyridin-4-yl)phenyl)thiazol-2-yl)amino)butan-2-yl)-1H-pyrrole-3-carboxamide] | – | faster onset of growth inhibition | more potent effects on growth inhibition | potent growth inhibition | more sensitive | strong growth inhibition
